Reference: paper PMC9502272, “A Metabolomics Approach for Predicting OATP1B-Type Transporter-Mediated Drug–Drug Interaction Liabilities” (Pharmaceutics, 2022)
“And” between values parts separate entries of the source, which are not always exact repeats. Identical values can stand only once.

Experiments:
Oatp1a/1b = test: Baseline plasma biomarker levels in Oatp1a/1b(−/−) cluster-knockout vs wild-type mice; assay type: in vivo, mouse; details: n = 6–10 per group
Procedure: Plasma concentrations of levels of CDCA-24G and glycochenodeoxycholate-3-sulfate (GCDCA-S) were determined using LC-MS/MS using a Vanquish UHPLC coupled with a Quantiva triple quadrupole mass spectrometer (Thermo Fisher Scientific, Waltham, MA, USA). An Accucore aQ column (50 × 2.1 mm, dp = 2.6 μm; Thermo Fisher Scientific) was protected by a C18 AQUASIL guard cartridge (2.1 mm × 10 mm, dp = 3 μm; Thermo Fisher Scientific). The injection volume of sample was 5.0 μL. The temperature of the autosampler rack was 4 °C, and the temperature of the column was maintained at 20 °C. The mobile phase was composed of solvent A (2 mmol ammonium acetate in water) and solvent B (100% methanol), and the total run time was 4.6 min. The gradient conditions were as follows: 0–0.5 min, 45% B; 0.5–2.0 min, 45 to 90%, 2.0–4.0 min, 90% B; 4.0–4.6 min, 45% B, delivered at a flow rate of 0.4 mL/min. The MS assay setting with the positive voltage applied to the ESI capillary was set at 3791 V, and the capillary temperatures was 335 °C with a vaporizer temperature of 350 °C. Argon was used as the collision gas at a pressure of 1.5 mTorr. Precursor molecular ions, and product ions were recorded for the confirmation and detection of GCDCA-S (528.4 > 448.3) and CDCA-24G (567.4 > 391.1), using [^2H5]-GCDCA-S (535.5 > 453.3) and [^2H5]-CDCA-24G (572.5 > 396.1) as respective internal standards. The lower limit of quantitation (LLOQ) for both analytes was determined to be 0.5 ng/mL. […]
Plasma concentrations of coproporphyrin I (CP-I) and III (CP-III) were determined similarly by LC-MS/MS. […] Precursor molecular ions and product ions were recorded for confirmation and detection of CP-I (655.4 > 596.4) and CP-III (655.4 > 596.3), using [^2H4]-CP-III (659.4 > 600.3) as the internal standard for both analytes. The LLOQ for both analytes were determined to be 1 ng/mL, and the within-run and between-run precisions as well as the accuracy were always within acceptable limits.

Oatp1b2 = biological target: T1, Oatp1b2 (Mus musculus, UniProt Q9JJL3); test: Uptake in HEK293 cells overexpressing Oatp1b2; assay type: cell-based; parameters: from tissue; hepatic transporter in vivo; details: HEK293 cells overexpressing Oatp1b2, 5 min uptake, vs empty vector
T1 sequence (Q9JJL3 1-689): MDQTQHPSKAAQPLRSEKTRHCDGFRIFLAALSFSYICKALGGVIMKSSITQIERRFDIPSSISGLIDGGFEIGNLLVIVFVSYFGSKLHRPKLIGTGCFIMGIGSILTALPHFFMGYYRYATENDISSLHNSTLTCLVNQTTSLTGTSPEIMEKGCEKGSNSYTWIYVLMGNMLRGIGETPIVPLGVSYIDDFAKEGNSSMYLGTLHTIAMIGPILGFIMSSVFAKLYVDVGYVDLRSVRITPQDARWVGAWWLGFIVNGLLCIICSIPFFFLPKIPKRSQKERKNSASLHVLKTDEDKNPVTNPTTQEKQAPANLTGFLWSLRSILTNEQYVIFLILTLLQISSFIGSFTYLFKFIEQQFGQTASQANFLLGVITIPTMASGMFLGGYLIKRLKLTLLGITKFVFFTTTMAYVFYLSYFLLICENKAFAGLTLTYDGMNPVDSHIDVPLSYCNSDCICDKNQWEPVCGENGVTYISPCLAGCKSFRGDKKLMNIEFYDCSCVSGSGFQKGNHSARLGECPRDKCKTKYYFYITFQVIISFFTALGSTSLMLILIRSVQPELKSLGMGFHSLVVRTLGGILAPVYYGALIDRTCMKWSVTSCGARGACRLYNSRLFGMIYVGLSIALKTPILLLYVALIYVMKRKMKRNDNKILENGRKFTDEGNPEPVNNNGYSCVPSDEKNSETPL
Procedure: The generation of human embryonic kidney (HEK293) cells (ATCC) engineered to overexpress OATP1B1, Oatp1b2, or empty vector, the cell culture conditions, and general details of uptake studies have been reported in detail elsewhere. Briefly, cells were grown to 90% confluence on poly-lysine coated multi-well plates. […] The pre-treatment medium was rinsed off with warm 1× PBS followed by the addition of the test compounds for an incubation period of 5 min. After incubation, transport was halted by aspirating the medium and rinsing the cells three times with ice-cold 1× PBS. After lysing cells with 0.1 N HCl, and subsequent adding methanol, 20 μL aliquots were mixed with 60 μL of acetonitrile containing relevant internal standards. After vortex mixing, the mixtures were centrifuged, and the supernatants were used for quantitative analysis by LC-MS/MS. Drug uptake results were normalized to total protein content and then to data obtained in cells carrying an empty vector plasmid, which was set to 100%.

C[C@H](CCC(=O)O[C@@H]1O[C@H](C(=O)O)[C@@H](O)[C@H](O)[C@H]1O)[C@H]1CC[C@H]2[C@@H]3[C@H](O)C[C@@H]4C[C@H](O)CC[C@]4(C)[C@H]3CC[C@]12C [CDCA-24G, chenodeoxycholate-24-glucuronide]
Plasma concentration of CDCA-24G in Oatp1a/1b(−/−) mice relative to wild type (Oatp1a/1b): 83 fold and > 80 fold
Transport by murine OATP1B-type transporter (Oatp1b2): efficiently transported
